SMILES strings stand for the structures.

The target in one assay is T1, factor D (Homo sapiens, UniProt P00746).
T1 construct: made in house; host or cells: E. coli
T1 sequence (P00746 26-253): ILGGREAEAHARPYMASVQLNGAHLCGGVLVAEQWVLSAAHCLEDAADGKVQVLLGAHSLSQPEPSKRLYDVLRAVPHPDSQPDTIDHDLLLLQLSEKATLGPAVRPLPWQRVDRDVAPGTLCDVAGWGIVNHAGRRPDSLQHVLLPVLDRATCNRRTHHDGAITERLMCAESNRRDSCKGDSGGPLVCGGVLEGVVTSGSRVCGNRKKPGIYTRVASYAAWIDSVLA
In words: Human Complement Factor D ELISA Assay. The assay is classed as biochemical. The following applies: tested using the assay of Biological Example 1 (ELISA, Ba product quantified); read-out: activity against factor D. (An ELISA detects its analyte on a solid surface through an enzyme-linked reagent.)
Consider `CC[N+]1=C(/C=C/C=C/C=C2/N(CCCCCC(=O)NC[C@@]3(F)C[C@@H](C(=O)NCc4cccc(Cl)c4F)N(C(=O)Nc4cn(C(N)=O)c5ccccc45)C3)c3ccc(S(=O)(=O)O)cc3C2(C)C)C(C)(C)c2cc(S(=O)(=O)O)ccc21` [Biological Example 2.2, 2-((1E,3E,5E)-5-(1-(6-((((3S,5S)-1-((1-carbamoyl-1H-indol-3-yl)carbamoyl)-5-((3-chloro-2-fluorobenzyl)carbamoyl)-3-fluoropyrrolidin-3-yl)methyl)amino)-6-oxohexyl)-3,3-dimethyl-5-sulfoindolin-2-ylidene)penta-1,3-dien-1-yl)-1-ethyl-3,3-dimethyl-5-sulfo-3H-indol-1-ium], for which the IC50 is 0.694 µM.

In a further assay the target is T1, factor D. In words: factor D inhibition assay of Biological Example 2. The format is biochemical.
Conditions: not given
As for `C[C@@H](N)c1cccc(-c2cc(COc3ccccc3CC(=O)O)cc(NCC3CC3(F)F)c2)c1F` (stereo partly drawn) [Example 281-E, 2-(2-((3′-((R)-1-Aminoethyl)-5-(((2,2-difluorocyclopropyl)methyl)amino)-2′-fluoro-[1,1′-biphenyl]-3-yl)methoxy)phenyl)acetic acid], the IC50 was 0.014 µM.

The compound `CCc1ccc(-c2cccc([C@@H](C)N)c2F)cc1COc1ccccc1CC(=O)O` [Example 282-D, (R)-2-(2-((3′-(1-aminoethyl)-4-ethyl-2′-fluoro-[1,1′-biphenyl]-3-yl)methoxy)phenyl)acetic acid] gave an IC50 of 0.016 µM.

`Cc1cc(-c2cccc([C@@H](C)N)c2F)cc(COc2ccccc2CC(=O)O)c1C` [Example 283, (R)-2-(2-((3′-(1-aminoethyl)-2′-fluoro-4,5-dimethyl-[1,1′-biphenyl]-3-yl)methoxy)phenyl)acetic acid] came in with an IC50 of 0.013 µM.

Consider `N[C@H](CF)c1cccc(-c2cc(CNCC(F)(F)F)cc(COc3ccccc3CC(=O)O)c2)c1` [Example 284-B, (S)-2-(2-((3′-(1-amino-2-fluoroethyl)-5-(((2,2,2-trifluoroethyl)amino)methyl)-[1,1′-biphenyl]-3-yl)methoxy)phenyl)acetic acid], for which the IC50 came out at 0.228 µM.

The compound `NC(CF)c1cccc(-c2cc(CNCC(F)(F)F)cc(COc3ccccc3CC(=O)O)c2)c1F` (stereo not drawn) [Example 285-A] registered an IC50 of 0.035 µM.

With `C[C@@H](N)c1cccc(-c2cc(CNCC(F)(F)F)cc(COc3ccccc3CC(=O)O)c2)c1F` [Example 285-B], the IC50 came to 0.058 µM.

Take `NCc1cccc(-c2cc(CNC(c3ccccc3)C(F)(F)F)cc(COc3ccccc3CC(=O)O)c2)c1` (stereo not drawn) [Example 286-E, 2-(2-((3′-(aminomethyl)-5-(((2,2,2-trifluoro-1-phenylethyl)amino)methyl)-[1,1′-biphenyl]-3-yl)methoxy)phenyl)acetic acid]: the IC50 is 0.006 µM.

The compound `N[C@H](CO)c1cccc(-c2cc(COc3ccccc3CC(=O)O)cc(C(=O)N[C@H]3CCOc4ccccc43)c2)c1` [Example 287-G, 2-(2-((3′-((S)-1-amino-2-hydroxyethyl)-5-((S)-chroman-4-ylcarbamoyl)-[1,1′-biphenyl]-3-yl)methoxy)phenyl)acetic acid] had an IC50 of 0.037 µM.

The compound `CNCc1cccc(-c2cccc(COc3ccccc3CC(=O)O)c2)c1` [Example 288, 2-(2-((3′-((methylamino)methyl)-[1,1′-biphenyl]-3-yl)methoxy)phenyl)acetic acid] came in with an IC50 of 3.43 µM.

With `N#Cc1ccc(COc2ccccc2CC(=O)O)cc1-c1cccc(CN)c1` [Example 289, 2-(2-((3′-(aminomethyl)-6-cyano-[1,1′-biphenyl]-3-yl)methoxy)phenyl)acetic acid], the IC50 is 0.85 µM.

Take `CC(C(=O)O)c1ccccc1OCc1cccc(-c2cccc(CN)c2)c1` (stereo not drawn) [Example 290, 2-(2-((3′-(aminomethyl)-[1,1′-biphenyl]-3-yl)methoxy)phenyl)propanoic acid]: the IC50 was 1.67 µM.

`NCc1cc(Cl)cc(-c2cccc(COc3ccccc3CC(=O)O)c2)c1` [Example 291, 2-(2-((3′-(aminomethyl)-5′-chloro-[1,1′-biphenyl]-3-yl)methoxy)phenyl)acetic acid] gave an IC50 of 0.19 µM.

`Cc1cc(CN)cc(-c2cccc(COc3ccccc3CC(=O)O)c2)c1` [Example 292-B, 2-(2-((3′-(aminomethyl)-5′-methyl-[1,1′-biphenyl]-3-yl)methoxy)phenyl)acetic acid] showed an IC50 of 0.07 µM.

`CCc1ccc(CC(=O)O)c(OCc2cccc(-c3cccc(CN)c3)c2)c1` [Example 293, 2-(2-((3′-(aminomethyl)-[1,1′-biphenyl]-3-yl)methoxy)-4-ethylphenyl)acetic acid]: the IC50 came to 0.005 µM.

In turn, `NCc1cccc(-c2cccc(COc3cc(C4CC4)ccc3CC(=O)O)c2)c1` [Example 294-A] came in with an IC50 of 0.009 µM.

Consider `N#Cc1ccc(CC(=O)O)c(OCc2cccc(-c3cccc(CN)c3)c2)c1` [Example 294-B], for which the IC50 is 0.04 µM.

`NCc1cccc(-c2cccc(COc3cc(C(N)=O)ccc3CC(=O)O)c2)c1` [Example 294-C]: the IC50 came to 0.01 µM.

In turn, `CC(=O)NCc1ccc(CC(=O)O)c(OCc2cccc(-c3cccc(CN)c3)c2)c1` [Example 294-D] displayed an IC50 of 0.01 µM.

In turn, `CCNc1ccc(CC(=O)O)c(OCc2cccc(-c3cccc(CN)c3)c2)c1` [Example 294-E] yielded an IC50 of 0.49 µM.

With `N#Cc1ccc(OCc2cccc(-c3cccc(CN)c3)c2)c(CC(=O)O)c1` [Example 294-F], the IC50 was 0.07 µM.

`NCc1cccc(-c2cccc(COc3ccc(C(N)=O)cc3CC(=O)O)c2)c1` [Example 294-G] showed an IC50 of 4.03 µM.

Take `NCc1cccc(-c2cccc(COc3cc(CC4CC4)ccc3CC(=O)O)c2)c1` [Example 295-C, 2-(2-((3′-(aminomethyl)-[1,1′-biphenyl]-3-yl)methoxy)-4-(cyclopropylmethyl)phenyl)acetic acid]: the IC50 stood at 0.009 µM.

Compound `CC(=O)NC(C(=O)O)c1ccccc1OCc1cccc(-c2cccc(CN)c2)c1` (stereo not drawn) [Example 296, 2-acetamido-2-(2-((3′-(aminomethyl)-[1,1′-biphenyl]-3-yl)methoxy)phenyl)acetic acid] came in with an IC50 of 2.41 µM.

The values are drawn from patent US20160145247A1, “Aminomethyl-Biaryl Derivatives Complement Factor D inhibitors and uses thereof” (NOVARTIS AG, priority 2013, published 2016).
